US10561763B2, “Oxygen generating biomaterial” (THE BOARD OF REGENTS OF THE UNIVERSITY OF TEXAS SYSTEM, priority 2013, dated 2020)

Assay: half-life of thermal oxygen release (thermolysis) of endoperoxides in CDCl3 at 25° C.
Assay type: physicochemical
Conditions: CDCL3, 25° C.
From the text: In certain aspect an oxygen generating biomaterial can comprise a fast release thermolytic endoperoxide, a slow release thermolytic endoperoxide, or a slow release thermolytic endoperoxide and a fast release endoperoxide. A biomaterial can further comprise a singlet oxygen quencher. […] The ti/2 half-life is temperature dependent. This aids in both storage and release. The ti/2 is longer the lower the storage temperatures. […] The endoperoxide oxygen-carrier is most conveniently prepared by photo-oxidation of a precursor aromatic organic compound. The structure of the endoperoxide-forming compound determines its thermal stability and thus how rapidly oxygen is released and precursor compound reformed (via a “retro-Diels-Alder reaction”) at any given temperature. At body temperature the half-life (ti/2) for thermal release of ^1O2 from an endoperoxide (also known as “thermolysis”) can range from seconds to days. By combining two or more endoperoxide compounds, one with a relatively slow release rate (long ti/2) at the working temperature, and one or more with faster release rates (short ti/2), it is possible to form delivery systems with a wide range of rates, durations, and profiles of oxygen generation to suit a variety of end-use applications. In some applications it is possible to design a system that could be recharged by photo-oxidizing the reformed precursor compound(s). FIG. 1 illustrates an example of the chemistry involved.

Q: Which “ti/2 in hours as measured in the presence of CDCL3 at 25° C.” value (from here on “ti/2 in hours as measured”) does the source give for `CC12C=CC(C)(OO1)c1ccccc12` [1,4-dimethylnaphthalene-1,4-endoperoxide] here?
A: 5 h

Q: For `Cc1cccc2c1C1(C)C=CC2OO1` (centres unmarked) [1,8-dimethylnaphthalene-1,4-endoperoxide], which “ti/2 in hours as measured” value is on record?
A: 30 h

Q: Which “ti/2 in hours as measured” value does the source give for `Cc1cccc2c1C1(C)C=CC2(C)OO1` (centres unmarked) [1,4,5-trimethylnaphthalene-1,4-endoperoxide] here?
A: 290 h

Q: With `CC1=CC2(C)OOC1(C)c1ccccc12` (centres unmarked) [1,2,4-trimethylnaphthalene-1,4-endoperoxide] as the compound, how does the “ti/2 in hours as measured” value read?
A: 70 h

Q: For `CC1=C(C)C2(C)OOC1(C)c1ccccc12` [1,2,3,4-tetramethylnaphthalene-1,4-endoperoxide], which “ti/2 in hours as measured” value is on record?
A: indeterminant
